One molecule from patent publication US11752088B2, “Highly concentrated seawater mineral extract and uses thereof” (Oriel Seasalt Company Limited, priority 2015, dated 2023) can be followed below.

A short description of the assay: Flow Mediated Dilation (FMD) test. The note with it: in vivo.

`O=[N+]([O-])OCC(CO[N+](=O)[O-])O[N+](=O)[O-]` [Nitroglycerin] gave an FMD reading of 10 % FMD and a blood vessel diameter of 5.3 mm.
